Tests used:
tyrosinase = assay: Production of tyrosinase by B16 murine melanocyte cell line (immunolabeling); format: cell-based; details: kojic acid 400 μg/mL, 48 hours, B16 cells
Protocol: B16 cells were cultured in DMEM 1 g/L glucose without phenol red supplemented with 10% foetal calf serum, in a humidified chamber at 37° C. and containing 5% CO2. […] The production of tyrosinase was evaluated by immunolabeling. The control condition corresponds to a culture of B16 murine melanocytes treated just with the medium, no other compound being added.

B16 murine melanocytes = assay: Production of melanin by B16 murine melanocyte cell line; format: cell-based; details: kojic acid 400 μg/mL, 72 hours, B16 cells, total melanin (extracellular and intracellular), OD 405 nm
Protocol: B16 cells were cultured in DMEM 1 g/L glucose without phenol red supplemented with 10% foetal calf serum, in a humidified chamber at 37° C. and containing 5% CO2. […] This was performed in the presence or absence of NDP-MSH, an analog of MSH (melanocyte-stimulating hormone). The total quantity of melanin (extracellular and intracellular) was evaluated by measuring the optical density at 405 nm of each sample against melanin standards in the presence or absence of NDP-MSH. The control condition corresponds to a culture of B16 murine melanocytes treated just with the medium, no other compound being added.

O=c1cc(CO)occ1O [kojic acid]
production of tyrosinase relative to the control (tyrosinase): decreased
melanin production, percentage relative to the control (B16 murine melanocytes): 48%

From patent publication US9693942B2 (NESTEC S.A., priority 2012, dated 2017)
